Source: ChEMBL document CHEMBL1127766, “Stereochemical approach for enzyme inhibitor design” (Bioorg Med Chem Lett, 1994)
Where “and” joins values, the source holds several entries; their conditions need not be identical. Equal values may be shown once.

Tests used:
Chymotrypsinogen A = Chymotrypsinogen A (Bos taurus, UniProt P00766); experiment: Binding affinity against alpha-chymotrypsin
[1] = molecular target: Chymotrypsinogen A (Bos taurus) (UniProt P00766)

`COC(=O)[C@@H](Cc1ccccc1)[C@H]1CO1` was tested, and the Ki (Chymotrypsinogen A) was 9.95 mM and 3.23 mM and the Kiact [1] was 5.24 min⁻¹.
